Laboratory results as given in patent US5356886A, “Antiviral phosphono-alken derivatives of purines” (Beecham Group p.l.c., priority 1990, dated 1994).
Values after ≈ are worked out from the molar mass of the structure shown. Like-named read-outs stand apart in the source and are kept apart here.

What was measured:
Format in all cases: cell-based
[1] = Cytotoxicity for the cell monolayers in the FIV test; conditions: cat, crandell feline kidney cells
Method: (§1) Drug stocks were diluted to the appropriate concentration, in medium (e.g. 10 mg/ml to 200 μg/ml). 150 μl of each drug was dispersed in triplicate, across the top row of a microtitre plate (150 μl of media for virus and cell control, vc and cc). 100 μl of medium was dispersed into all other wells. The wells were serially diluted moving down the plate, removing 50 μl from each well and transferring to the next row. 50 μl was discarded from the bottom wells.
(§2) Trypsinisation was carried out from a confluent cell monolayer of Crandell Feline Kidney cells, in 10% trypsin, followed by resuspension in media at 1×10^6 per ml, ensuring that a single cell suspension is achieved. (Media: 90% 1×RPMI, 25 mM hepes buffer; 10% Foetal calf serum; 2% Glutamine; 2% penecillin/streptomycin.)
(§3) FIV Glasgow 8 virus was diluted to 4× the required virus challenge in medium (40 TCID50 /ml). The virus infected medium was mixed with an equal volume of cell suspension, 100 μl of which was aliquoted into each well of the drug plate, except cell control. 100 μl of cell suspension at 5×10^4 per ml was added to the latter. This gives a final cell concentration of 2.5×10^4 per ml, and drug range 100-0.03 μg/ml. The plates were incubated at 37° C., 5% CO2 in an air humidified incabator for 11-14 days. The cells were fixed by immersing the plates in formoli saline (10% formaldehyde; 10% 1.5M NaCl; 80% water) for 1 hour minimum. The cells were stained with 10% crystal violet for 15 minutes.
(§4) The assay was scored by looking for presence of syncitia and, virus induced cytopathic effect in the cell monolayers, under a microscope. Results are given as the minimum concentration of drug inhibiting syncitial production, minimum inhibitory concentration, MIC.

HSV-1 = test: Plaque Reduction Test for Herpes Simplex Virus 1 (strain SC16) in MRC-5 cells; conditions: Human alphaherpesvirus 1, MRC5
Method: (§5) MRC-5 cells were grown to confluence in 24 well multi-dishes (well diameter=1.5 cm). The drained cell monolayers were each infected with approximately 50 infectious particles of herpes simplex virus 1 (HSV-1; strain SC16) or herpes simplex virus 2 (HSV-2; strain MS) in 100 μl of phosphate-buffered saline. The virus was adsorbed for 1 hour at room temperature. After adsorption, residual inoculum was removed from each well and replaced with 0.5 ml of Eagle's MEM containing 5% newborn calf serum and 0.9% agarose (A37). Once the agarose had set, dilutions of the test compound, which had been prepared in Eagle's MEM (containing 5% newborn calf serum), were added, each well receiving 0.5 ml of liquid overlay. The test compound was diluted to give the following series of concentrations: 200, 60, 20, 6 . . . 0.06 μg/ml; final concentrations in the assay ranged, therefore, between 100 μg/ml and 0.03 μg/ml. The infected cultures were incubated at 37° C. in a humidified atmosphere of 5% CO2 until plaques were clearly visible (usually 1 day).
(§6) Cultures from 1 and 2 were fixed in formal saline, the agarose overlays were carefully washed off, and then the cell monolayers were stained with carbol fuchsin. A stereo microscope was used to count plaques. The IC50 (concentration of drug which inhibits the number of plaques formed by 50% relative to the number of plaques observed in virus control monolayers) of the test compound was calculated. In addition, the monolayers were examined for evidence of drug-induced cytotoxicity; the minimum concentration at which cytotoxicity occurs was recorded.

HSV-2 = test: Plaque Reduction Test for Herpes Simplex Virus 2 (strain MS) in MRC-5 cells; conditions: Human alphaherpesvirus 2, MRC5
Method: as §5, §6

VZV = test: Plaque Reduction Test for Varicella-Zoster Virus (Ellen strain) in MRC-5 cells; conditions: Human alphaherpesvirus 3, MRC5
Method: as §5, with “varicella zoster” for “herpes simplex”, “(VZV; Ellen strain)” for “1 (HSV-1; strain SC16) or herpes simplex virus 2 (HSV-2; strain MS)”, “heat-inactivated foetal” for “newborn”, “(5 or 6 days).” for “(usually 1 day).”
as §6

FIV = test: Test for Feline Immunodeficiency Virus (FIV Glasgow 8) in Crandell Feline Kidney cells; conditions: FIV Glasgow 8, Crandell Feline Kidney cells, 11-14 days, read-out: MIC (minimum concentration of drug inhibiting syncitial production)
Method: as §1, §2, §3, §4

CMV = test: Plaque Reduction Test for Cytomegalovirus (AD-169 strain) in MRC-5 cells; conditions: Human betaherpesvirus 5, AD169, MRC5
Method: MRC-5 cells were grown to confluence in 24 well multi-dishes (well diameter=1.5 cm). The drained cell monolayers were each infected with approximately 50 infectious particles of cytomegalovirus (CMV; AD-169 strain) in 100 μl of phosphate-buffered saline. The virus was adsorbed for 1 hour at room temperature. After adsorption, residual inoculum was removed from each well and replaced with 1 ml of Eagle's MEM containing 10% heat inactivated foetal calf serum and 0.9% agarose (A37). Once the agarose had set, dilutions of the test compound, which had been prepared in Eagle's MEM (containing 10% heat-inactivated calf serum), were added, each well receiving 1 ml of liquid overlay. The test compound was diluted to give the following series of concentrations: 200, 60, 20, 6 . . . 0.06 μg/ml; final concentrations in the assay range, therefore, between 100 μg/ml and 0.03 μg/ml. The infected cultures were incubated at 37° C. in a humidified atmosphere containing 5% CO2 until plaques were clearly visible (about 12 days). The cultures are fixed in formol saline, the agarose overlays were carefully washed off, and then the cell monolayers were stained with carbol fuchsin. A stereo microscope was used to count plaques. The IC50 (concentration of drug which inhibits the number of plaques formed by 50% relative to the number of plaques observed in virus control monolayers) of the test compound was calculated. In addition, the monolayers were examined for evidence of drug-induced cytotoxicity; the minimum concentration at which cytotoxicity occurs was recorded.

HIV [2] = test: HIV Suppression test, viral RNA (nucleic acid hybridisation) in peripheral human lymphocytes; conditions: Human immunodeficiency virus 1, Lymphocyte, 96 h; Concn. 10 μM; read-out: % Inhibition on Day 4 after infection, Viral RNA
Method: (§7) Peripheral human lymphocytes were prepared, cultivated, and harvested as above. Following the determination of the lymphocyte surface markers, unstimulated and mitogen stimulated cells were combined in a ratio of 1:2.
(§8) Under safety conditions these cells are infected with a standard preparation of HIV. The cells are sedimented by centrifugation. The supernatant was discarded and cells were resuspended in the HIV inoculum.
(§9) This inoculum is a liquid suspension of HIV-1 strain virus, pretested and adjusted to a titer that results in a synthesis of viral core protein p24 of >100 ng/ml at day four following infection of human lymphocytes according to the protocol.
(§10) 3×10^8 lymphocytes were resuspended in 1 ml HIV inoculum and incubated at 37° C. for 60 minutes. Subsequently, the cells were washed two times with 50 ml of culture medium and resuspended in culture medium containing 10 units/ml of human recombinant interleukin-2 to yield a cell concentration of 2×10^6 cells/ml. 100 μof this cell suspension was added to each well of the microtiter plates containing the diluted solutions of the compounds. The microtiter plates were cultivated in an incubator with a humidified atmosphere and 5% CO2 at 37° C.
(§11) Accordingly, a fraction of lymphocytes was mock-infected with the same virus preparation that was heat inactivated (30 minutes at 56° C.) prior to infection.
(§12) On each of the days 2,3 and 4 post infection one of the microtiter plates which had been established in triplicate was prepared for determination of viral replication. Viral RNA is determined within the cells whereas the viral core protein p24 was detected in the supernatant of the lymphocyte culture.
(§13) Accordingly, 150 μl of supernatant were removed from each well and transferred to the well of a microtiter plate containing 50 μl/well of SDS (sodium dodecylsulfate, 0.08%). These plates were stored frozen. 50 μl of stop solution (1% SDS, 20 mM sodium acetate, pH 5.0, and 200 μg/ml heparin) were added to the cells remaining in each well. The plates were stored frozen.
(§14) The concentration of p24 synthesized by the HIV infected cells was determined by means of a sandwich ELISA, while the concentration of viral RNA was quantitated by nucleic acid hybridisation, using a ^32 P-labelled DNA probe for the gag/pol region of the viral genome. Absolute levels of viral antigen and RNA in drug treated samples were compared with untreated, virus-infected controls and the percentage inhibition calculated.

Visna Virus = test: CPE Inhibition Test (Established Monolayer) for Lentiviruses, visna virus (strain K184) in sheep choroid plexus cells; conditions: Visna-maedi virus; visna virus strain K184, SCP cells; read-out: MIC (minimum concentration giving complete protection of the cell monolayers)
Method: 3×10^4 sheep choroid plexus (SCP) cells were plated into individual wells of a 96 well microtitre plate in 100 μl of Eagle's MEM with Hanks' salts containing 10% heat inactivated foetal calf serum (FCS). When monolayers had become established (after 1 or 2 days growth) they were washed with 200 μl of maintenance medium (Eagle's MEM with Hanks' salts containing 0.5% FCS) and infected with 100 μl of visna virus (strain K184) in maintenance medium (30 TCID50/ml). Test samples were diluted with maintenance medium in further 96 well microtitre plates over the range 200-0.06 μg/ml by 3-fold dilution steps. 100 μl of the diluted samples was then transferred directly onto virus-infected monolayers (final concentration range therefore 100-0.03 μg/ml) and […] containing 5% CO2 until virus-induced CPE was maximal in the untreated virus-infected controls (usually 12-14 days). The plates were fixed with formal saline and stained with crystal violet. Virus-induced CPE was then scored microscopically and the minimum concentration of sample giving complete protection of the cell monolayers (MIC) determined.

HIV [3] = test: HIV Suppression test, viral antigen (core protein p24, sandwich ELISA) in peripheral human lymphocytes; conditions: Human immunodeficiency virus 1, Lymphocyte, 96 h; Concn. 10 μM; read-out: % Inhibition on Day 4 after infection, Viral Antigen
Method: as §7, §8, §9, §10, §11, §12, §13, §14

[4] = read-out: concentration at which cytotoxicity was noted
[5] = no cytotoxicity noted with concentrations up to this value, read-out: cytotoxicity for the cell monolayers

Structure (SMILES)	MCC [1, 4]	IC50 (HSV-1)	IC50 (HSV-2)	IC50 (VZV)	MIC (FIV)	IC50 (CMV)	inhibition at 10 µM (HIV [2])	MIC (Visna Virus)	inhibition at 10 µM (HIV [3])	MCC [1, 5]
Nc1nc2c(ncn2OCC(/C=C/P(=O)(O)O)CO)c(=O)[nH]1 (stereo not drawn) [Example 13, (E)-9-(2-hydroxymethyl-4-phosphonobut-3-enyloxy)guanine]	1 µg/mL	100 µg/mL (≈ 302 µM)	60 µg/mL (≈ 181 µM)	5 µg/mL (≈ 15.1 µM)	0.1 µg/mL (≈ 0.302 µM)	15 µg/mL (≈ 45.3 µM)	–	–	–	–
Nc1nc(N)c2ncn(CC/C=C/P(=O)(O)O)c2n1 [Example 8, (E)-2,6-Diamino-9-(4-phosphonobut-3-enyl)purine]	–	–	–	–	–	–	62%	0.3 µg/mL (≈ 1.06 µM)	37%	–
Nc1ncnc2c1ncn2OCC/C=C\P(=O)(O)O [Example 10, (Z)-9-(4-Phosphonobut-3-enyloxy) adenine]	–	–	–	–	–	–	–	100 µg/mL (≈ 351 µM)	–	–
Nc1nc2c(ncn2OCC/C=C\P(=O)(O)O)c(=O)[nH]1 [Example 11, (Z)-9-(4-phosphonobut-3-enyloxy)guanine]	–	100 µg/mL (≈ 332 µM)	> 100 µg/mL	> 100 µg/mL	–	55 µg/mL (≈ 183 µM)	33%	< 0.03 µg/mL	3%	–
Nc1nc2c(ncn2CC/C=C/P(=O)(O)O)c(=O)[nH]1 [Example 6, (E)-9-[4-phosphonobut-3-enyl]guanine]	–	100 µg/mL (≈ 351 µM)	26 µg/mL (≈ 91.2 µM)	55 µg/mL (≈ 193 µM)	–	15 µg/mL (≈ 52.6 µM)	–	0.1 µg/mL (≈ 0.351 µM)	–	–
Nc1ncnc2c1ncn2OCC(/C=C/P(=O)(O)O)CO (stereo not drawn) [Example 15, (E)-9-(2-hydroxymethyl-4-phosphonobut-3-enyloxy) adenine]	–	–	–	–	30 µg/mL (≈ 95.2 µM)	–	–	–	–	> 100 µg/mL
Nc1ncnc2c1ncn2OCC/C=C/P(=O)(O)O [Example 3, (E)-9-(4-phosphonobut-3-enyloxy)adenine]	–	–	–	–	10 µg/mL (≈ 35.1 µM)	–	44%	10 µg/mL (≈ 35.1 µM)	47%	> 100 µg/mL
Nc1ncnc2c1ncn2CC/C=C/P(=O)(O)O [Example 5, (E)-9-[4-Phosphonobut-3-enyl]adenine]	–	–	–	–	–	–	–	1 µg/mL (≈ 3.71 µM)	–	–
Nc1ncnc2c1ncn2CC(/C=C/P(=O)(O)O)CO (stereo not drawn) [Example 17, (E)-9-(2-Hydroxymethyl-4-phosphonobut-3-enyl)adenine]	10 µg/mL	20 µg/mL (≈ 66.8 µM)	29 µg/mL (≈ 96.9 µM)	< 3 µg/mL	0.03 µg/mL (≈ 0.1 µM)	11 µg/mL (≈ 36.8 µM)	–	–	–	–
